# Laboratory results reported in patent US20170190705A1, “Compositions and Methods for Inhibiting BMP” (THE BRIGHAM AND WOMAN'S HOSPITAL, INC., priority 2014, published 2017).
# Experiments:
# Type in all cases: biochemical
# MARK3 = MARK3 (Homo sapiens, UniProt P27448); assay: Kinome profiling MARK3; details: read-out: Inhibitory activity MARK3; for inhibition at 0.1 µM: 100 nM
# Method: (§1) . The kinome-wide selectivity was determined following the methods previously reported by Mohedas et al., ACS Chem Biol 2013, 8, 1291-1302 and Sanvitale et al., PLoS One 2013, 8, e62721.
# PRKG1 = molecular target: T1, PRKG1 (Homo sapiens, UniProt Q13976); assay: Kinome profiling PRKG1; details: read-out: Inhibitory activity PRKG1; for inhibition at 0.1 µM: 100 nM
# T1 sequence (Q13976 1-671): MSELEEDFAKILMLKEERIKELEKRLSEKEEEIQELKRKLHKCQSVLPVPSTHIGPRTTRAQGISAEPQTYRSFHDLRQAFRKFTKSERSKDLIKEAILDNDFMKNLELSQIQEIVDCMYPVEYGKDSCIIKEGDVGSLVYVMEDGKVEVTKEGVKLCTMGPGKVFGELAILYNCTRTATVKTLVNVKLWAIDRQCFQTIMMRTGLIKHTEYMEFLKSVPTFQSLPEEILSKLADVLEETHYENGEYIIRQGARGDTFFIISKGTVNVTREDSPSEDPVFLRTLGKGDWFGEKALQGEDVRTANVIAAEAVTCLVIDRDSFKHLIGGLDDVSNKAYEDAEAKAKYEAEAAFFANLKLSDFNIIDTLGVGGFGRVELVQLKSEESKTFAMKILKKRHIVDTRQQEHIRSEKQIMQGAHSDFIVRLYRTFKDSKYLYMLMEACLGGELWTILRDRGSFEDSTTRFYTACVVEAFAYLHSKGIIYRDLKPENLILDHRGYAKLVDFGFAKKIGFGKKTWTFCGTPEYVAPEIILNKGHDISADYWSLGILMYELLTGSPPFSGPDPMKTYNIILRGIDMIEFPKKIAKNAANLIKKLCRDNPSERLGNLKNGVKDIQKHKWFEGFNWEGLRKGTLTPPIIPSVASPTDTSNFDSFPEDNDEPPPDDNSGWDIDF
# Method: as §1
# CLK2 = CLK2 (Homo sapiens, UniProt P49760); assay: Kinome profiling CLK2; details: read-out: Inhibitory activity CLK2; for inhibition at 0.1 µM: 100 nM
# Sequence of CLK2 (P49760 whole entry): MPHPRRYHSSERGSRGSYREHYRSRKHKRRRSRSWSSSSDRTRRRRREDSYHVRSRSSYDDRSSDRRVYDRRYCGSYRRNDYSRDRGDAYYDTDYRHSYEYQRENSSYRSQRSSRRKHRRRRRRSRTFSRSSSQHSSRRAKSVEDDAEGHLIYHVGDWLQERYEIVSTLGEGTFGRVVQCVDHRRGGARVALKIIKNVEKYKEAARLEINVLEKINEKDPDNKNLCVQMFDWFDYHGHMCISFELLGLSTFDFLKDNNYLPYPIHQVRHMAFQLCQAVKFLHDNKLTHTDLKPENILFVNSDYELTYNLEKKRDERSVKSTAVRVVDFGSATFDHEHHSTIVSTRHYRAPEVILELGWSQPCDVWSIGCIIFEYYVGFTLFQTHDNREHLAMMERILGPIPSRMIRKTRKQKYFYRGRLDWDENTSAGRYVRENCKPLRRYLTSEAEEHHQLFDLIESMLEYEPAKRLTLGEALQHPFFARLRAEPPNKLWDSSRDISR
# Method: as §1
# MUSK = molecular target: T2, MUSK (Homo sapiens, UniProt O15146); assay: Kinome profiling MUSK; details: read-out: Inhibitory activity MUSK; for inhibition at 0.1 µM: 100 nM
# T2 sequence (O15146 24-869): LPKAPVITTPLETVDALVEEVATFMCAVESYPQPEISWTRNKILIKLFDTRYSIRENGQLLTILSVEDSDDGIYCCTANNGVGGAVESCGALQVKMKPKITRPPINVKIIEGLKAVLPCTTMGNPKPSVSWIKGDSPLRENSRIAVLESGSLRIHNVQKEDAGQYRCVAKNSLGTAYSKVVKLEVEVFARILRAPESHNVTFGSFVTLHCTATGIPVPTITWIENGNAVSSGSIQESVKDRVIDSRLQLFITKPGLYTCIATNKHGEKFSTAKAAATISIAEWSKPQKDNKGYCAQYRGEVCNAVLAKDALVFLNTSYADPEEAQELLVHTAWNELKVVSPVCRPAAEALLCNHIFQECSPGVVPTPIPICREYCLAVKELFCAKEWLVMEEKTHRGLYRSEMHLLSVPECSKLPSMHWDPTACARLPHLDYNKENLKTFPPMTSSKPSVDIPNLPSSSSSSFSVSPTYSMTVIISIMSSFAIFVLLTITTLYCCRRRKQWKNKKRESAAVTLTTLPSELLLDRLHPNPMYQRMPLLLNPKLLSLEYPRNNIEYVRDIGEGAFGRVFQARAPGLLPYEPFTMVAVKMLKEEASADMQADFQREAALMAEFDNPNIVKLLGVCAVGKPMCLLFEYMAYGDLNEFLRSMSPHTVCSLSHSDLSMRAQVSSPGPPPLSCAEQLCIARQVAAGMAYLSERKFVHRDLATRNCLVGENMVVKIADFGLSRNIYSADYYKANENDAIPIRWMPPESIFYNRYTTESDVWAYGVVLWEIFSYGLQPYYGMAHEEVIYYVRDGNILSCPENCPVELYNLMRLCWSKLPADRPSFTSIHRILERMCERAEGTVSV
# Method: as §1
# BLK = BLK (Homo sapiens, UniProt P51451); assay: Kinome profiling BLK; details: read-out: Inhibitory activity BLK; for inhibition at 0.1 µM: 100 nM
# Sequence of BLK (P51451 whole entry): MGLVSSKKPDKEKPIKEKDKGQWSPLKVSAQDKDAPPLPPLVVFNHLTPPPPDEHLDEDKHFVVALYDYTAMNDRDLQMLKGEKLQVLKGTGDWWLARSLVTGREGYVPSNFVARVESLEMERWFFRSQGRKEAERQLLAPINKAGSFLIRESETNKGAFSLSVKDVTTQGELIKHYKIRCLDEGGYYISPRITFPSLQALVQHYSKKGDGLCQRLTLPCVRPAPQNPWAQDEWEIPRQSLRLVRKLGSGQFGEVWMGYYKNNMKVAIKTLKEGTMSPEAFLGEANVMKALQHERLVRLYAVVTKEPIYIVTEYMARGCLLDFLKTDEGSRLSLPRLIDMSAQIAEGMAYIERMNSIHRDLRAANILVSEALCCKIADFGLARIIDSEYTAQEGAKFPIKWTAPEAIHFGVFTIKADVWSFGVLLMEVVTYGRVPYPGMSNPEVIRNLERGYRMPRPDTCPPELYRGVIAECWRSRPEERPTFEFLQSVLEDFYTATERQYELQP
# Method: as §1
# PTK5 = PTK5 (Homo sapiens, UniProt P42685); assay: Kinome profiling PTK5; details: read-out: Inhibitory activity PTK5; for inhibition at 0.1 µM: 100 nM
# Sequence of PTK5 (P42685 whole entry): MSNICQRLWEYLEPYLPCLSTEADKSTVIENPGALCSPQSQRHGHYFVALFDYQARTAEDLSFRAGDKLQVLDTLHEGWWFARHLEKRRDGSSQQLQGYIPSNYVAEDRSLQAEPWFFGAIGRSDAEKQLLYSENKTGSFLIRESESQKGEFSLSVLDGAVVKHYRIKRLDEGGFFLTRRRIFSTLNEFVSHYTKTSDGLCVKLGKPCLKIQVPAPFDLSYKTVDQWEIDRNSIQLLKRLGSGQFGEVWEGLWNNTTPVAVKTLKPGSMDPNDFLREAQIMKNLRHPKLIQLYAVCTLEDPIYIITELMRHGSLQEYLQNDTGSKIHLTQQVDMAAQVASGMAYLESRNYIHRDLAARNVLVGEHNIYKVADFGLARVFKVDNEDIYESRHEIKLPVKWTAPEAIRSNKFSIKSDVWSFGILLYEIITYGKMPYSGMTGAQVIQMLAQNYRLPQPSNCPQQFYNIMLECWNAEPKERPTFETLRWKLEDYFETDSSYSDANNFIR
# Method: as §1
# Sequence of MARK3 (P27448 whole entry): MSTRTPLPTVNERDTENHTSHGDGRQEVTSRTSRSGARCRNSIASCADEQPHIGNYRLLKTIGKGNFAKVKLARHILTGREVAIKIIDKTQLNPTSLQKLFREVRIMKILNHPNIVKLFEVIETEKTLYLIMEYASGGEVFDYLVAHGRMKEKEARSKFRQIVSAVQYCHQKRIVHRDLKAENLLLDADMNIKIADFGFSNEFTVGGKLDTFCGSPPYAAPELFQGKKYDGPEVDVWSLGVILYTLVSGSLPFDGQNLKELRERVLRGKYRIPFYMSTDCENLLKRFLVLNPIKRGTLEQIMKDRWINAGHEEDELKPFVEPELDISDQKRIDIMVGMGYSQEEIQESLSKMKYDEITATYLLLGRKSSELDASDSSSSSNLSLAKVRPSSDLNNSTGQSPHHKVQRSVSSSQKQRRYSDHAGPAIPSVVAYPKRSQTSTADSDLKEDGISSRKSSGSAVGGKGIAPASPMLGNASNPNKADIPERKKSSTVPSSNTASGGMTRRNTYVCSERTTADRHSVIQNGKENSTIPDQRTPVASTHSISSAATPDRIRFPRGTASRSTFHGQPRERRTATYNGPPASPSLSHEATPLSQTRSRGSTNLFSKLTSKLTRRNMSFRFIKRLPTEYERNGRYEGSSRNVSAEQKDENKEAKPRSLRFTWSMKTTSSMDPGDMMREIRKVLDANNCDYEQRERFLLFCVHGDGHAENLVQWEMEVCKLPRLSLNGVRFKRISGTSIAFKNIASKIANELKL
Compound,inhibition at 0.1 µM (MARK3),inhibition at 1 µM (MARK3),inhibition at 0.1 µM (PRKG1),inhibition at 1 µM (PRKG1),inhibition at 0.1 µM (CLK2),inhibition at 1 µM (CLK2),inhibition at 0.1 µM (MUSK),inhibition at 1 µM (MUSK),inhibition at 0.1 µM (BLK),inhibition at 1 µM (BLK),inhibition at 0.1 µM (PTK5),inhibition at 1 µM (PTK5)
"COc1cc(-c2cc(-c3ccc(N4CCNCC4)cc3)cnc2N)cc(OC)c1OC [Compound 15, 5-(4-(piperazin-1-yl)phenyl)-3-(3,4,5-trimethoxyphenyl)pyridin-2-amine]",4%,48%,0%,4%,1%,-1%,1%,5%,16%,64%,17%,66%
"COc1cc(-c2cc(-c3ccc(N4CCNCC4)cc3)cnc2C)cc(OC)c1OC [Compound 10, 1-(4-(6-methyl-5-(3,4,5-trimethoxyphenyl)pyridin-3-yl)phenyl)piperazine]",0%,3%,3%,2%,2%,2%,2%,2%,1%,12%,1%,11%
